According to the NIST ThermoML archive (doi:10.1016/j.jct.2016.03.029):

Legend:
[1] = xn = mol fraction of the nth substance listed; conditions: 100 kPa, Liquid; for speed of sound: Frequency=3 MHz, Sing-around technique in a fixed-path interferometer; for mass density: Vibrating tube method
[2] = refractive index (Na D-line) (dimensionless); xn = mol fraction of the nth substance listed; conditions: 100 kPa, Liquid, Standard Abbe refractometry

CCCC[n+]1ccn(C)c1.O=S(=O)([N-]S(=O)(=O)C(F)(F)F)C(F)(F)F + CN1CCCC1=O
Conditions | mass density, [1] [kg/m3] | refractive index, [2] | speed of sound, [1] [m/s]
298.15 K, x1 = 0.1051 | 1135.14 | 1.45767 | 1448.1
298.15 K, x1 = 0.2088 | 1209.84 | 1.45014 | 1385.2
298.15 K, x1 = 0.2926 | 1255.56 | 1.44539 | 1347.3
298.15 K, x1 = 0.3807 | 1293.95 | 1.44129 | 1317
298.15 K, x1 = 0.5019 | 1335.52 | 1.4368 | 1287.5
298.15 K, x1 = 0.5925 | 1360.41 | 1.43414 | 1271
298.15 K, x1 = 0.6982 | 1384.58 | 1.43169 | 1255.8
298.15 K, x1 = 0.7862 | 1401.58 | 1.42999 | 1245.6
298.15 K, x1 = 0.8895 | 1418.59 | 1.4283 | 1236.2
298.15 K, x1 = 1 | 1433.72 | 1.42671 | 1227.9
303.15 K, x1 = 0.1051 | 1130.6 | 1.45571 | 1430.8
303.15 K, x1 = 0.2088 | 1205.24 | 1.4483 | 1369.4
303.15 K, x1 = 0.2926 | 1250.89 | 1.44359 | 1332.5
303.15 K, x1 = 0.3807 | 1289.25 | 1.43954 | 1303.1
303.15 K, x1 = 0.5019 | 1330.79 | 1.4351 | 1274.3
303.15 K, x1 = 0.5925 | 1355.69 | 1.43244 | 1258.2
303.15 K, x1 = 0.6982 | 1379.86 | 1.43006 | 1243.5
303.15 K, x1 = 0.7862 | 1396.85 | 1.42842 | 1233.5
303.15 K, x1 = 0.8895 | 1413.85 | 1.42678 | 1224.4
303.15 K, x1 = 1 | 1428.92 | 1.42522 | 1216.8
308.15 K, x1 = 0.1051 | 1126.04 | 1.45375 | 1413.4
308.15 K, x1 = 0.2088 | 1200.63 | 1.44645 | 1353.5
308.15 K, x1 = 0.2926 | 1246.22 | 1.44178 | 1317.8
308.15 K, x1 = 0.3807 | 1284.55 | 1.43777 | 1289.2
308.15 K, x1 = 0.5019 | 1326.08 | 1.43337 | 1261.2
308.15 K, x1 = 0.5925 | 1350.96 | 1.43074 | 1245.5
308.15 K, x1 = 0.6982 | 1375.14 | 1.42842 | 1231.1
308.15 K, x1 = 0.7862 | 1392.14 | 1.42683 | 1221.5
308.15 K, x1 = 0.8895 | 1409.13 | 1.42524 | 1212.7
308.15 K, x1 = 1 | 1424.13 | 1.42373 | 1205.8
313.15 K, x1 = 0.1051 | 1121.51 | 1.45177 | 1396.4
313.15 K, x1 = 0.2088 | 1196.02 | 1.44455 | 1337.9
313.15 K, x1 = 0.2926 | 1241.59 | 1.43994 | 1303.1
313.15 K, x1 = 0.3807 | 1279.89 | 1.43596 | 1275.6
313.15 K, x1 = 0.5019 | 1321.38 | 1.43161 | 1248.3
313.15 K, x1 = 0.5925 | 1346.26 | 1.42904 | 1232.9
313.15 K, x1 = 0.6982 | 1370.44 | 1.42676 | 1218.9
313.15 K, x1 = 0.7862 | 1387.44 | 1.42522 | 1209.5
313.15 K, x1 = 0.8895 | 1404.42 | 1.42368 | 1201.2
313.15 K, x1 = 1 | 1419.36 | 1.42225 | 1195
318.15 K, x1 = 0.1051 | 1116.95 | 1.44978 | 1379.1
318.15 K, x1 = 0.2088 | 1191.41 | 1.44265 | 1322.3
318.15 K, x1 = 0.2926 | 1236.95 | 1.43809 | 1288.7
318.15 K, x1 = 0.3807 | 1275.22 | 1.43414 | 1262.1
318.15 K, x1 = 0.5019 | 1316.7 | 1.42983 | 1235.4
318.15 K, x1 = 0.5925 | 1341.57 | 1.42733 | 1220.3
318.15 K, x1 = 0.6982 | 1365.75 | 1.42509 | 1206.6
318.15 K, x1 = 0.7862 | 1382.75 | 1.42359 | 1197.5
318.15 K, x1 = 0.8895 | 1399.75 | 1.4221 | 1189.5
318.15 K, x1 = 1 | 1414.61 | 1.42076 | 1184.2
323.15 K, x1 = 0.1051 | 1112.42 | 1.44778 | 1361.8
323.15 K, x1 = 0.2088 | 1186.82 | 1.4407 | 1306.6
323.15 K, x1 = 0.2926 | 1232.32 | 1.43621 | 1274.3
323.15 K, x1 = 0.3807 | 1270.56 | 1.43228 | 1248.4
323.15 K, x1 = 0.5019 | 1312.04 | 1.42802 | 1222.5
323.15 K, x1 = 0.5925 | 1336.92 | 1.42562 | 1207.8
323.15 K, x1 = 0.6982 | 1361.1 | 1.42341 | 1194.4
323.15 K, x1 = 0.7862 | 1378.1 | 1.42193 | 1185.6
323.15 K, x1 = 0.8895 | 1395.1 | 1.42051 | 1177.9
323.15 K, x1 = 1 | 1409.88 | 1.41923 | 1173.6
